Earlier results as cited in paper PMC6582641 (Organic & biomolecular chemistry, 2019).

How the values were obtained:
[1] = tested on: mice
[2] = tested on: TRPC5; conditions: read-out: IC50 towards TRPC5
[3] = tested on: TRPC4; conditions: read-out: IC50 TRPC4
[4] = tested on: TRPC3
[5] = tested on: TRPC6
[6] = tested on: TRPV (vanilloid) 1
[7] = tested on: TRPV (vanilloid) 4
[8] = tested on: TRPA (ankyrin) 1
[9] = tested on: TRPM (melastatin) 2
[10] = tested on: TRPM (melastatin) 8

| Compound | anxiolytic and antidepressant effects [1] | IC50 [2] [nM] | IC50 [3] [nM] | binding activity toward TRPC3 [4] | binding activity toward TRPC6 [5] | binding activity toward TRPV1 [6] | binding activity toward TRPV4 [7] | binding activity toward TRPA1 [8] | binding activity toward TRPM2 [9] | binding activity toward TRPM8 [10] |
| --- | --- | --- | --- | --- | --- | --- | --- | --- | --- | --- |
| Cn1c(=O)n(CCCO)c(=O)c2c1nc(Oc1cccc(Cl)c1)n2Cc1ccc(Cl)cc1 [HC070, 7-(4-Chlorobenzyl)-8-(3-Chlorophenoxy)-1-(3-Hydroxypropyl)-3-Methyl-3,7-Dihydro-1H-Purine-2,6-Dione] | produces anxiolytic and antidepressant effects in mice |  |  |  |  |  |  |  |  |  |
| Cn1c(=O)n(CCCO)c(=O)c2c1nc(Oc1cccc(OC(F)(F)F)c1)n2Cc1ccc(Cl)cc1 [HC608, 7-(4-Chlorobenzyl)-1-(3-Hydroxypropyl)-3-Methyl-8-(3-(Trifluoromethoxy)Phenoxy)-3,7-Dihydro-1H-Purine-2,6-Dione] |  | 6.2 | 32.5 | no binding activities | no binding activities | no binding activities | no binding activities | no binding activities | no binding activities | no binding activities |
